Source: ChEMBL document CHEMBL3400108, “Synthesis and biological evaluation of open-chain analogs of cyclic peptides as inhibitors of cellular Shp2 activity” (Bioorg Med Chem, 2015)
Non-standard residues stand in square brackets, D forms with d. Residues, ends and D or L forms follow the SMILES beside them. Groups on a side chain read outwards from the residue. *: point of attachment. Phe(4-Br) = N[C@@H](Cc1ccc(Br)cc1)C(=O)O; Phe(4-Cl) = N[C@@H](Cc1ccc(Cl)cc1)C(=O)O; Phe(4-F) = N[C@@H](Cc1ccc(F)cc1)C(=O)O; 2Nal = N[C@@H](Cc1ccc2ccccc2c1)C(=O)O; NEt2 = CCN(CC)*

Experiments:
Acetylcholinesterase = Acetylcholinesterase (Homo sapiens, UniProt P22303); assay: Inhibition of AchE (unknown origin)
Chain of Acetylcholinesterase (P22303 whole entry): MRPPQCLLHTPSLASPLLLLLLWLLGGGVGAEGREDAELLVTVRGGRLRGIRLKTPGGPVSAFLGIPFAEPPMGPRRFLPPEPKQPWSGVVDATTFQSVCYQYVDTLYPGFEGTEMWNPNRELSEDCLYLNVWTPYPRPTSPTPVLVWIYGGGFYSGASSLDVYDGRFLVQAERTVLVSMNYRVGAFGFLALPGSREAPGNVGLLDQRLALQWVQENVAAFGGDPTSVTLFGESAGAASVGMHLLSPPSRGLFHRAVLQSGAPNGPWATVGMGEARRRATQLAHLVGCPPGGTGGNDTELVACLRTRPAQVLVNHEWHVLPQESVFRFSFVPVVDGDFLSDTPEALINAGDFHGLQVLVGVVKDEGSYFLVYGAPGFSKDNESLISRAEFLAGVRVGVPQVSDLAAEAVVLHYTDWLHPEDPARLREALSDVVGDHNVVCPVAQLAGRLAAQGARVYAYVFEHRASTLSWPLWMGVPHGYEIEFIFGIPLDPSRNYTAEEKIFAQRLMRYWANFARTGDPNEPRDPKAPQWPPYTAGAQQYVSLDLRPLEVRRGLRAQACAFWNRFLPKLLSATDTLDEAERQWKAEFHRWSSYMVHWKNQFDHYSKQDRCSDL

HeLa = assay: Antitumor activity against human HeLa cells; type: functional, cell-based
[1] = biological target: T1, Tyrosine-protein phosphatase non-receptor type 11 (Homo sapiens) (UniProt Q06124); assay: Inhibition of SHP2 (unknown origin) at 50 uM
T1 sequence (whole entry): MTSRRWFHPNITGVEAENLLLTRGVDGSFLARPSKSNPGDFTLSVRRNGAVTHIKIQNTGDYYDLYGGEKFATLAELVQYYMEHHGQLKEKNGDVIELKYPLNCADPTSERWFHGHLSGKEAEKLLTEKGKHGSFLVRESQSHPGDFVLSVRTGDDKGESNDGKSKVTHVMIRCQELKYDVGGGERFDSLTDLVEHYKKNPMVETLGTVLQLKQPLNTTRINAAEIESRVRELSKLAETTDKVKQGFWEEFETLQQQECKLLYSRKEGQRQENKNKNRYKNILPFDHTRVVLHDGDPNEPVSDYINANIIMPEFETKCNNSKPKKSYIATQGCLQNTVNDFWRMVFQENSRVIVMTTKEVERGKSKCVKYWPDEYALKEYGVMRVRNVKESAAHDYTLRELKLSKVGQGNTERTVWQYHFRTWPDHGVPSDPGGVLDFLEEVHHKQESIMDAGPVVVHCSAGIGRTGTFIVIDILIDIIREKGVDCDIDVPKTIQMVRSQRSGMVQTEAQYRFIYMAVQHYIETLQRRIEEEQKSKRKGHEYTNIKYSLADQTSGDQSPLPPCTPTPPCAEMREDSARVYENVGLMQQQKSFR

[2] = biological target: T1, Tyrosine-protein phosphatase non-receptor type 11 (Homo sapiens); assay: Inhibition of SHP2 (unknown origin) at 20 uM
Cathepsin B = Cathepsin B (Homo sapiens, UniProt P07858); assay: Inhibition of cathepsin B (unknown origin)
[3] = Inhibition of IMPDH (unknown origin); set-up: species or system Homo sapiens
[4] = biological target: T1, Tyrosine-protein phosphatase non-receptor type 11 (Homo sapiens); assay: Inhibition of SHP2 (unknown origin) at 100 uM
MDA-MB-231 = assay: Antitumor activity against human MDA-MB-231 cells; type: functional, cell-based
Proteasome = assay: Inhibition of proteasome (unknown origin); type: subcellular, Homo sapiens
Monoglyceride lipase = biological target: T2, Monoglyceride lipase (Homo sapiens, UniProt Q99685); assay: Inhibition of MAGL (unknown origin)
T2 sequence (Q99685 whole entry): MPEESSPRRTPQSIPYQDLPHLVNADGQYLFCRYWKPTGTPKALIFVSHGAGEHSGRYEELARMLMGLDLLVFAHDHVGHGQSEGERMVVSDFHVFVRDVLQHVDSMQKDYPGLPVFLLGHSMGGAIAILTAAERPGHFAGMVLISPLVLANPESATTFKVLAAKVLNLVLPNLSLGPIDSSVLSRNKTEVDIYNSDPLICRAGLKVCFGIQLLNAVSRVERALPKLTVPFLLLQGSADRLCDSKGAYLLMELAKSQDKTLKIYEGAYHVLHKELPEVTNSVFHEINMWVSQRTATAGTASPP

[5] = biological target: T1, Tyrosine-protein phosphatase non-receptor type 11 (Homo sapiens); assay: Inhibition of SHP2 (unknown origin) at 10 uM
[6] = biological target: T1, Tyrosine-protein phosphatase non-receptor type 11 (Homo sapiens); assay: Inhibition of SHP2 (unknown origin) at 5 uM
[7] = biological target: T1, Tyrosine-protein phosphatase non-receptor type 11 (Homo sapiens); assay: Inhibition of SHP2 (unknown origin) at 25 uM
[8] = biological target: T3, Tyrosine-protein phosphatase non-receptor type 11 (Homo sapiens, UniProt Q06124); assay: Inhibition of SHP2 (unknown origin)
T3 sequence (Q06124 whole entry): T1 sequence (whole entry)

Compound | IC50 (Acetylcholinesterase) [µM] | IC50 (HeLa) [µg/mL] | inhibition [1] [%] | inhibition [2] [%] | IC50 (Cathepsin B) [µM] | IC50 [3] [µg/mL] | inhibition [4] [%] | IC50 (MDA-MB-231) [µg/mL] | IC50 (Proteasome) [µg/mL] | IC50 (Monoglyceride lipase) [µM] | inhibition [5] [%] | inhibition [6] [%] | inhibition [7] [%] | IC50 [8] [µM]
CCN(CC)C(=O)[C@H](Cc1ccc2ccccc2c1)NC(=O)[C@H](CC(C)C)NC(=O)[C@@H](NC(=O)[C@@H](N)COC(=O)[C@H](CC(C)C)NC(C)=O)C(C)C (H-S([Leu-Ac])VL[2Nal]-NEt2) | > 138 | > 50 | 46 | 27 | > 138 | > 100 | 93 | > 50 | > 100 | > 138 | – | – | – | –
CCN(CC)C(=O)[C@H](Cc1ccc2ccccc2c1)NC(=O)[C@H](CC(C)C)NC(=O)[C@@H](NC(=O)[C@@H](N)COC(=O)[C@@H]1CCCN1C(C)=O)C(C)C (H-S([Pro-Ac])VL[2Nal]-NEt2) | > 141 | > 50 | 76 | 58 | > 141 | > 100 | 94 | > 50 | > 100 | > 141 | 47 | 33 | 61 | 12.5
CCN(CC)C(=O)[C@H](Cc1ccc(Br)cc1)NC(=O)[C@H](CC(C)C)NC(=O)[C@@H](NC(=O)[C@@H](N)COC(=O)[C@@H]1CCCN1C(C)=O)C(C)C (H-S([Pro-Ac])VL[Phe(4-Br)]-NEt2) | > 136 | > 50 | 51 | 20 | > 136 | > 100 | 86 | > 50 | > 100 | > 136 | – | – | – | –
CCN(CC)C(=O)[C@H](Cc1ccc(OC)cc1)NC(=O)[C@H](CC(C)C)NC(=O)[C@@H](NC(=O)[C@@H](N)COC(=O)[C@@H]1CCCN1C(C)=O)C(C)C (H-S([Pro-Ac])VLY(Me)-NEt2) | > 145 | > 50 | 53 | 35 | > 145 | > 100 | 87 | > 50 | > 100 | > 145 | – | – | – | –
CCN(CC)C(=O)[C@H](Cc1ccccc1)NC(=O)[C@H](CC(C)C)NC(=O)[C@@H](NC(=O)[C@@H](N)COC(=O)[C@H](CC(C)C)NC(C)=O)C(C)C (H-S([Leu-Ac])VLF-NEt2) | > 148 | > 50 | 83 | 40 | > 148 | > 100 | 94 | > 50 | > 100 | > 148 | 31 | 12 | 46 | 36.8
CCN(CC)C(=O)[C@H](Cc1ccccc1)NC(=O)[C@H](CC(C)C)NC(=O)[C@@H](NC(=O)[C@@H](N)COC(=O)[C@@H]1CCCN1C(C)=O)C(C)C (H-S([Pro-Ac])VLF-NEt2) | > 152 | > 50 | 54 | 29 | > 152 | > 100 | 95 | > 50 | > 100 | > 152 | – | – | – | –
CCN(CC)C(=O)[C@H](Cc1ccc(Br)cc1)NC(=O)[C@H](CC(C)C)NC(=O)[C@@H](NC(=O)[C@@H](N)COC(=O)[C@H](CC(C)C)NC(C)=O)C(C)C (H-S([Leu-Ac])VL[Phe(4-Br)]-NEt2) | > 133 | > 50 | 78 | 46 | > 133 | > 100 | 96 | > 50 | > 100 | > 133 | 26 | 21 | 49 | 33.2
CCN(CC)C(=O)[C@H](Cc1ccc(OC)cc1)NC(=O)[C@H](CC(C)C)NC(=O)[C@@H](NC(=O)[C@@H](N)COC(=O)[C@H](CC(C)C)NC(C)=O)C(C)C (H-S([Leu-Ac])VLY(Me)-NEt2) | > 142 | > 50 | 52 | 34 | > 142 | > 100 | 92 | > 50 | > 100 | > 142 | – | – | – | –
CCN(CC)C(=O)[C@H](Cc1ccc(F)cc1)NC(=O)[C@H](CC(C)C)NC(=O)[C@@H](NC(=O)[C@@H](N)COC(=O)[C@@H]1CCCN1C(C)=O)C(C)C (H-S([Pro-Ac])VL[Phe(4-F)]-NEt2) | > 148 | > 50 | 81 | 44 | > 148 | > 100 | 95 | > 50 | > 100 | > 148 | 23 | 18 | 47 | 31.9
CCN(CC)C(=O)[C@H](Cc1ccc(F)cc1)NC(=O)[C@H](CC(C)C)NC(=O)[C@@H](NC(=O)[C@@H](N)COC(=O)[C@H](CC(C)C)NC(C)=O)C(C)C (H-S([Leu-Ac])VL[Phe(4-F)]-NEt2) | > 144 | > 50 | 55 | 32 | > 144 | > 100 | 97 | > 50 | > 100 | > 144 | – | – | – | –
CCN(CC)C(=O)[C@H](Cc1ccc(Cl)cc1)NC(=O)[C@H](CC(C)C)NC(=O)[C@@H](NC(=O)[C@@H](N)COC(=O)[C@@H]1CCCN1C(C)=O)C(C)C (H-S([Pro-Ac])VL[Phe(4-Cl)]-NEt2) | > 144 | > 50 | 46 | 37 | > 144 | > 100 | 88 | > 50 | > 100 | > 144 | – | – | – | –
CCN(CC)C(=O)[C@H](Cc1ccc(Cl)cc1)NC(=O)[C@H](CC(C)C)NC(=O)[C@@H](NC(=O)[C@@H](N)COC(=O)[C@H](CC(C)C)NC(C)=O)C(C)C (H-S([Leu-Ac])VL[Phe(4-Cl)]-NEt2) | > 141 | > 50 | 49 | 21 | > 141 | > 100 | 89 | > 50 | > 100 | > 141 | – | – | – | –
